In brackets after ≈: the same amount, converted by molar mass. Activity calls are given as the source filed them. Some results are limits rather than exact numbers.

The values that follow come from ChEMBL document CHEMBL4613212, “Insights of synthetic analogues of anti-leprosy agents” (Bioorg Med Chem, 2019).

Holding throughout (format): functional
Assay [1] relates to Mycobacterium tuberculosis. Description: Antitubercular activity against Mycobacterium tuberculosis infected in mouse assessed as reduction in microbial load at 2 to 3 mg ip, pretreated for 48 to 72 hrs followed by microbial infection and subsequent compound dosing at 48 to 72 hrs post-infection measured 24 to 32 days post-infection relative to control.
For assay [2], the system named is Mycobacterium tuberculosis. Description: Antimycobacterial activity against Mycobacterium tuberculosis H37Rv by BACTEC radiometric growth assay.
Assay [3] has as its system Mycolicibacterium smegmatis. Description: Antimicrobial activity against Mycobacterium smegmatis ATCC 607.
The test system of assay [4] is Mycolicibacterium smegmatis. The experiment in a line: Antimycobacterial activity against DDS sensitive Mycobacterium smegmatis ATCC 607 […].
Assay [5] concerns Mycolicibacterium smegmatis. Description: Antimycobacterial activity against DDS resistant Mycobacterium smegmatis ATCC 607 […].
In assay [6] the test system is Mycobacterium tuberculosis. The experiment in a line: Antitubercular activity against Mycobacterium tuberculosis H37Rv ATCC 27294 assessed as growth inhibition at 6.25 ug/ml by microplate alamar blue assay relative to control. Background: Alamar Blue is a resazurin reagent that responds to reducing activity.
Where [7] appears, read: Mycolicibacterium smegmatis, ATCC 607, read-out: MIC.

On to `CC(C)(C)c1cc2c(O)c(c1)Cc1cc(C(C)(C)C)cc(c1O)Cc1cc(C(C)(C)C)cc(c1O)Cc1cc(C(C)(C)C)cc(c1O)Cc1cc(C(C)(C)C)cc(c1O)Cc1cc(C(C)(C)C)cc(c1O)C2`, for which the result in assay [1] was inactive.

In the case of `CCCCCCCCCCSCCC(N)=O`, in assay [2], the MIC (as a rule, the smallest concentration in the dilution series that meets the test's criterion for growth inhibition) worked out at 25 µg/mL (≈ 102 µM).

With `O.OC[C@H]1O[C@@H](n2cnc3c(-c4cccs4)ncnc32)[C@H](O)[C@@H]1O`, in assay [3], the MIC came out at 1.75 nmol/mL.

Molecule `NC(=O)CS(=O)(=O)CCCCCc1ccccc1` yielded an MIC in assay [2] of 12.5 to 25 µg/mL (≈ 46.4 to 92.8 µM).

`CCCCCCCC[S+]([O-])CC(=O)OCc1ccccc1` (configuration not stated) had an MIC in assay [2] of 6.25 µg/mL (≈ 20.1 µM).

For the molecule `Nc1ccc(S(=O)(=O)c2ccc(NCC(=O)O)cc2)cc1` [ACEDIASULFONE], the MIC in assay [4] is 261 µg/mL (≈ 853 µM); in assay [5], more than 2200 µg/mL.

`C.CCCCCCCCC[S+]([O-])CC(N)=O` (racemic): the MIC in assay [2] was 25 µg/mL.

In the case of `CCCCCCCCCCCCOc1c2cc(S(=O)(=O)O)cc1Cc1cc(S(=O)(=O)O)cc(c1OCCCCCCCCCCCC)Cc1cc(S(=O)(=O)O)cc(c1OCCCCCCCCCCCC)Cc1cc(S(=O)(=O)O)cc(c1OCCCCCCCCCCCC)Cc1cc(S(=O)(=O)O)cc(c1OCCCCCCCCCCCC)Cc1cc(S(=O)(=O)O)cc(c1OCCCCCCCCCCCC)Cc1cc(S(=O)(=O)O)cc(c1OCCCCCCCCCCCC)Cc1cc(S(=O)(=O)O)cc(c1O)C2`, in assay [1], the Activity is on record as 50 - 80%.

In assay [2], `CCCCCCCCCCS(=O)(=O)CCC(N)=O` showed an MIC of more than 25 µg/mL.

In turn, `Cl.Cl.OC[C@H]1O[C@@H](n2cnc3c(-c4cccs4)ncnc32)[C@H](O)[C@@H]1O` gave an MIC in assay [3] of 0.7 nmol/mL.

`CCCCCCCCC[S@@+]([O-])CC(N)=O` gave an MIC in assay [2] of 25 µg/mL (≈ 107 µM).

Molecule `C.CCCCCCCCC[S+]([O-])CC(=O)OC` (racemic) returned an MIC in assay [2] of more than 25 µg/mL.

In turn, `CC(C)CCCC(C)CCS(=O)(=O)CC(N)=O` (configuration not stated) registered an MIC in assay [2] of 6.25 µg/mL (≈ 23.7 µM).

As to `Nc1ccc(S(=O)(=O)c2ccc(NCCO)cc2)cc1`, the MIC was 13.7 µg/mL (≈ 46.9 µM) in assay [4] and 2500 µg/mL (≈ 8550 µM) in assay [5].

In assay [2], `CCCCCCCCCC[S+]([O-])CCC(N)=O` (configuration not stated) displayed an MIC of 6.25 µg/mL (≈ 23.9 µM).

In assay [2], `NC(=O)CS(=O)(=O)CCCCc1ccccc1` yielded an MIC of more than 25 µg/mL.

`CCCCCCCCC[S@@+]([O-])CC(=O)OC` showed an MIC in assay [2] of more than 25 µg/mL.

Consider `OC[C@H]1O[C@@H](n2cnc3c(-c4ccns4)ncnc32)[C@H](O)[C@@H]1O`, for which the MIC in assay [3] (setting [7]) amounted to 3 nmol/mL (≈ 1.01 µg/mL).

With `COC(=O)CNc1ccc(S(=O)(=O)c2ccc(N)cc2)cc1`, the values for the MIC in assay [4] and in assay [5] were 32.8 µg/mL (≈ 102 µM) and more than 800 µg/mL, respectively.

For the molecule `Nc1ccc(S(=O)(=O)c2ccc(NO)cc2)cc1` [4-AMINO-4'-HYDROXAMINE-DIPHENYLSULPHONE], the results for the MIC in assay [4] and in assay [5] were 18.1 µg/mL (≈ 68.5 µM) and 3000 µg/mL (≈ 11400 µM), respectively.

For `Cl.OC[C@H]1O[C@@H](n2cnc3c(-c4cccs4)ncnc32)[C@H](O)[C@@H]1O`, in assay [3], the MIC was determined as 0.4 nmol/mL.

Turning to `CCCCCCCCC[S@+]([O-])CC(=O)OC`, in assay [2], the MIC is more than 25 µg/mL.

Take `O=S(=O)(c1ccc(O)cc1)c1ccc(O)cc1`: in assay [4], it took 400 µg/mL (≈ 1600 µM) to inhibit growth (MIC).

For the molecule `CC(=O)Nc1ccc(S(=O)(=O)c2ccc(NC(C)=O)c(Cl)c2)cc1`, the MIC in assay [2] is more than 25 µg/mL.

`OC[C@H]1O[C@@H](n2cnc3c(-c4ccco4)ncnc32)[C@H](O)[C@@H]1O`: in assay [6], the inhibition (in general, the percentage by which the read-out fell short of the control) at 6.25 µg/mL came out at 0%.

In turn, `Nc1ccc(S(=O)(=O)c2ccccc2N)cc1` registered an MIC in assay [4] of 44.2 µg/mL (≈ 178 µM).

With `CCCCCCCCOCC(N)=O`, in assay [2], the MIC was more than 25 µg/mL.

Take `CCCCCN(CCCCC)c1ccc(S(=O)(=O)c2ccc(N)cc2)cc1`: the MIC in assay [4] was more than 257 µg/mL.

In assay [3], `O.O.OC[C@H]1O[C@@H](n2cnc3c(-c4cccs4)ncnc32)[C@H](O)[C@@H]1O` gave an MIC of 4 nmol/mL.

On to `CCCCCCCC[S+]([O-])CC(=O)O` (configuration not stated), for which the MIC in assay [2] is more than 25 µg/mL.

In the case of `CNc1ccc(S(=O)(=O)c2ccc(N)cc2)cc1`, the MIC in assay [4] is 37.3 µg/mL (≈ 142 µM).

As for `CCCCNc1ccc(S(=O)(=O)c2ccc(N)cc2)cc1`, the figures for the minimal inhibitory concentration (MIC) in assay [4] and in assay [5] were 110 µg/mL (≈ 361 µM) and more than 650 µg/mL, respectively.

Turning to `CCCCCNc1ccc(S(=O)(=O)c2ccc(N)cc2)cc1`, the values for the MIC in assay [4] and in assay [5] were 377 µg/mL (≈ 1180 µM) and more than 500 µg/mL, respectively.

For the molecule `CC[C@@H](CO)NCCN[C@@H](CC)CO` [ETHAMBUTOL], the MIC in assay [2] was 2 µg/mL (≈ 9.79 µM).

Molecule `CCCCCCCCC[S+]([O-])CC(=O)OC` (configuration not stated) came in with an MIC in assay [2] of 6.25 µg/mL (≈ 25.2 µM).

As to `C=C/C(C)=C/[C@@]1(C)SC(=O)C(C)=C1O` [THIOLACTOMYCIN], it took 25 µg/mL (≈ 119 µM) to inhibit growth in assay [2] (MIC).

`CCCCCCCCS(=O)(=O)CC(=O)OC` showed an MIC in assay [2] of more than 25 µg/mL.

Consider `OC[C@H]1O[C@@H](n2nnc3c(-c4cccs4)ncnc32)[C@H](O)[C@@H]1O`, for which, in assay [3] (setting [7]), the MIC was found to be 20 nmol/mL (≈ 6.71 µg/mL).

In assay [2], `CCCCCCCCCCS(=O)(=O)C(C)C(N)=O` (configuration not stated) yielded an MIC of more than 25 µg/mL.

Regarding `Nc1cccc(S(=O)(=O)c2cccc(N)c2)c1`, in assay [4], the lowest concentration to inhibit growth (MIC) was 806 µg/mL (≈ 3250 µM).

As for `Nc1ccc(S(=O)(=O)c2ccc(Br)cc2)cc1`, the MIC in assay [4] was 319 µg/mL (≈ 1020 µM).

As to `CCCCCCNc1ccc(S(=O)(=O)c2ccc(N)cc2)cc1`, the values for the MIC in assay [4] and in assay [5] were more than 360 µg/mL and more than 400 µg/mL, respectively.

As to `Nc1ccc(S(=O)(=O)c2ccc([N+](=O)[O-])cc2)cc1`, the MIC in assay [4] is 34.4 µg/mL (≈ 124 µM); in assay [5], more than 1200 µg/mL.

As for `CC(=O)Nc1ccc(S(=O)(=O)c2ccc(NC(C)=O)cn2)cc1`, the MIC in assay [2] came out at 12.5 µg/mL (≈ 37.5 µM).

On to `CC(=O)OC[C@H]1O[C@@H](n2cnc3c(Cl)ncnc32)[C@H](OC(C)=O)[C@@H]1OC(C)=O`, for which the inhibition at 6.25 µg/mL in assay [6] turned out to be 4%.

Consider `Nc1ccc(S(=O)(=O)c2ccc(NCCCO)cc2)cc1`, for which the MIC in assay [4] was 19.6 µg/mL (≈ 64 µM); in assay [5], more than 2400 µg/mL.

`CCCCCCCCCCP(=O)([O-])CCC(N)=O.[K+]` came in with an MIC in assay [2] of more than 50 µg/mL.

Turning to `CCCCCC/C=C/S(=O)(=O)CC(N)=O`, the MIC in assay [2] was found to be 12.5 µg/mL (≈ 53.6 µM).

With `c1coc(-c2[nH]cnc3ncnc2-3)c1`, the inhibition at 6.25 µg/mL in assay [6] turned out to be 6%.

With `CCOCCOCCS(=O)(=O)CC(N)=O`, the MIC in assay [2] is more than 25 µg/mL.

Consider `CCCCCCCCS(=O)(=O)NC(N)=O`, for which the MIC in assay [2] is more than 25 µg/mL.

Consider `CCCCCCCCC[S@+]([O-])CC(N)=O`, for which, in assay [2], 25 µg/mL (≈ 107 µM) was the least that counted as inhibitory (MIC).

Take `CCN(CC)c1ccc(S(=O)(=O)c2ccc(N)cc2)cc1`: in assay [4], the MIC is more than 164 µg/mL.

`CCNc1ccc(S(=O)(=O)c2ccc(N)cc2)cc1`: inhibition of growth in assay [4] (MIC) required 54.4 µg/mL (≈ 197 µM).

`CCCNc1ccc(S(=O)(=O)c2ccc(N)cc2)cc1`: the MIC was 34.4 µg/mL (≈ 118 µM) in assay [4] and more than 1200 µg/mL in assay [5].

Regarding `Nc1ccc(S(=O)(=O)c2ccc(NC=O)cc2)cc1`, the MIC was 120 µg/mL (≈ 434 µM) in assay [4] and more than 400 µg/mL in assay [5].

With `C/C=C/C/C=C/CCC(=O)[C@H]1O[C@H]1C(N)=O` [CERULENIN], the MIC in assay [2] was in the range of 0.5 to 1.5 µg/mL (≈ 2.24 to 6.72 µM).

As to `Nc1ccc(S(=O)(=O)c2ccccc2)cc1`, the MIC in assay [4] is 1290 µg/mL (≈ 5520 µM); in assay [5], more than 2580 µg/mL.

As to `Nc1ccc(S(=O)(=O)c2ccc(F)cc2)cc1`, the results for the MIC in assay [4] and in assay [5] were 95 µg/mL (≈ 378 µM) and more than 1800 µg/mL, respectively.

For `CC(C)CCCCCCCS(=O)(=O)CC(N)=O`, the MIC in assay [2] came out at 1.5 µg/mL (≈ 5.69 µM).

`CCCCCCCCS(=O)(=O)NS(C)(=O)=O` had an MIC in assay [2] of more than 25 µg/mL.

In assay [2], `CCCCCCCCS(=O)(=O)NS(N)(=O)=O` showed an MIC of more than 25 µg/mL.

The molecule `NC(=O)CS(=O)(=O)CCCCCCc1ccccc1` showed an MIC in assay [2] of more than 25 µg/mL.

`CCCCCCCC/C=C/S(=O)(=O)CC(N)=O`: in assay [2], the MIC was 12.5 µg/mL (≈ 47.8 µM).

For `CCCCCCCC[S+]([O-])CC(=O)OC` (configuration not stated), the MIC in assay [2] came out at 12.5 µg/mL (≈ 53.3 µM).

Turning to `NC(=O)c1cnccn1` [PYRAZINAMIDE], inhibition of growth in assay [2] (MIC) required 100 µg/mL (≈ 812 µM).

Turning to `OC[C@H]1O[C@@H](n2cnc3c(-c4cccs4)ncnc32)[C@H](O)[C@@H]1O`, the inhibition at 6.25 µg/mL in assay [6] turned out to be 6%.

Turning to `Nc1ccc(S(=O)(=O)c2ccc(Cl)cc2)cc1`, the MIC was 432 µg/mL (≈ 1610 µM) in assay [4] and more than 600 µg/mL in assay [5].
